# Measured values: patent publication US9163256B2, “Mutant receptors and their use in a nuclear receptor-based inducible gene expression system” (priority 2004, dated 2015)
# Where “and” joins values, the source holds several entries; their conditions need not be identical. Identical values can stand only once. Like-named read-outs stand apart in the source and are kept apart here.
# Assays:
# [1] = target: CfEcR-DEF mutant V107I/Y127E/G (Choristoneura fumiferana, UniProt O77255, INS541G/V390I/Y410E); experiment: GAL4-driven luciferase reporter assay in NIH3T3 cells; type: cell-based
# Protocol: (§1) This construct was prepared in the same way as in switch 1.1 above except wild-type CfEcR-DEF was replaced with mutant CfEcR-DEF comprising a ligand binding domain comprising a substitution mutation selected from Table 1 below.
# The Gal-4-CfEcR-DEF(VYG) mutant was created by inserting an extra glycine at the C-terminal end of EcR substitution mutant V107I/Y127E [CfECR(VY)] by PCR. Essentially, this was done in two steps: PCR-amplification of CfEcR-DEF(VYG) and substitution of the CfEcR(VY) in the vector GAL4-CfEcR DEF(VY) pBIND 1-9 with the PCR-amplified CfEcR-DEF(VYG). The CfEcR-DEF region (with the extra glycine) was amplified by using the vector GAL4-CfEcR DEF(VY) pBIND 1-9 as template and the following PCR primers: […]
# (§2) DNAs were transfected into mouse NIH3T3 cells (ATCC) as follows. Standard methods for culture and maintenance of the cells were followed. Cells were harvested and plated 96-well plates at 2,500 cells per well, in 50 μL of growth medium containing 10% fetal bovine serum (FBS). Twenty-four hours later, the cells were treated with 35 μL of serum-free growth medium containing either dimethylsulfoxide (DMSO; control) or a DMSO solution of ligand. The cells were then transfected using Superfect (Qiagen Inc.) transfection reagent. For each well, 0.625 μL of Superfect was mixed with 14.2 μL of serum-free growth medium. 0.16 μg of reporter construct and 0.04 μg of each receptor construct were added to the transfection reagent mix. The contents of the transfection mix were mixed in a vortex mixer and let stand at room temperature for 30 minutes. At the end of incubation, 15 μL of transfection mix was added to the cells. The cells were maintained at 37° C. and 5% CO2 for 48 hours in 5% FBS.
# (§3) Reporter Assays: Cells were harvested 40 hours after adding ligands. 125 μL of passive lysis buffer (part of Dual-Luciferase reporter assay system from Promega Corporation) were added to each well of the […] plate. The plates were placed on a rotary shaker for 15 minutes. Twenty μL of lysate were assayed. Luciferase activity was measured using Dual-Luciferase reporter assay system from Promega Corporation following the manufacturer's instructions. Fold induction (FI) activities were calculated by dividing relative light units (“RLU”) in ligand treated cells with RLU in DMSO treated cells (untreated control).
# CfEcR-DEF mutant F109N = CfEcR-DEF mutant F109N (Choristoneura fumiferana, UniProt O77255, F392N); experiment: cell-based
# Protocol: as §1, §2, §3
# CfEcR-DEF mutant R95W = CfEcR-DEF mutant R95W (Choristoneura fumiferana, UniProt O77255, R378W); experiment: cell-based
# Protocol: as §1, §2, §3
# CfEcR-DEF mutant Y120M = CfEcR-DEF mutant Y120M (Choristoneura fumiferana, UniProt O77255, Y403M); experiment: cell-based
# Protocol: as §1, §2, §3
# CfEcR-DEF mutant W238E = CfEcR-DEF mutant W238E (Choristoneura fumiferana, UniProt O77255, W521E); experiment: cell-based
# Protocol: as §1, §2, §3
# CfEcR-DEF mutant F109M = CfEcR-DEF mutant F109M (Choristoneura fumiferana, UniProt O77255, F392M); experiment: cell-based
# Protocol: as §1, §2, §3
# CfEcR-DEF mutant A110N = CfEcR-DEF mutant A110N (Choristoneura fumiferana, UniProt O77255, A393N); experiment: cell-based
# Protocol: as §1, §2, §3
# CfEcR-DEF mutant V96E = CfEcR-DEF mutant V96E (Choristoneura fumiferana, UniProt O77255, V379E); experiment: cell-based
# Protocol: as §1, §2, §3
# CfEcR-DEF mutant V128F = CfEcR-DEF mutant V128F (Choristoneura fumiferana, UniProt O77255, V411F); experiment: cell-based
# Protocol: as §1, §2, §3
# CfEcR-DEF mutant T52P = CfEcR-DEF mutant T52P (Choristoneura fumiferana, UniProt O77255, T335P); experiment: cell-based
# Protocol: as §1, §2, §3
# CfEcR-DEF mutant F48W = CfEcR-DEF mutant F48W (Choristoneura fumiferana, UniProt O77255, F331W); experiment: cell-based
# Protocol: as §1, §2, §3
# CfEcR-DEF mutant F48Y = CfEcR-DEF mutant F48Y (Choristoneura fumiferana, UniProt O77255, F331Y); experiment: cell-based
# Protocol: as §1, §2, §3
# CfEcR-DEF mutant L132M = CfEcR-DEF mutant L132M (Choristoneura fumiferana, UniProt O77255, L415M); experiment: cell-based; type: cell-based; conditions: for Rel Max FI: mutant L132M; for Emax: NIH3T3, 40 h, read-out: Rel Max FI, mutant L132M
# Protocol: as §1, §2, §3
# CfEcR-DEF mutant F48N = CfEcR-DEF mutant F48N (Choristoneura fumiferana, UniProt O77255, F331N); experiment: GAL4-driven luciferase reporter assay in NIH3T3 cells; type: cell-based
# Protocol: as §1, §2, §3
# CfEcR-DEF mutant M125W = CfEcR-DEF mutant M125W (Choristoneura fumiferana, UniProt O77255, M408W); experiment: as above; type: cell-based
# Protocol: as §1, §2, §3
# [2] = target: CfEcR-DEF mutant T52V/A110P (Choristoneura fumiferana, UniProt O77255, A393P/T335V); experiment: as above; type: cell-based
# Protocol: as §1, §2, §3
# [3] = target: CfEcR-DEF mutant V107I/Y127E/T52V (Choristoneura fumiferana, UniProt O77255, T335V/V390I/Y410E); experiment: as above; type: cell-based
# Protocol: as §1, §2, §3
# [4] = relative to max fold induction of GS-E ligand
# [5] = NIH3T3, 40 h, read-out: Rel Max FI
# Chain of CfEcR-DEF mutant R95W (O77255 entry or part of it R378W): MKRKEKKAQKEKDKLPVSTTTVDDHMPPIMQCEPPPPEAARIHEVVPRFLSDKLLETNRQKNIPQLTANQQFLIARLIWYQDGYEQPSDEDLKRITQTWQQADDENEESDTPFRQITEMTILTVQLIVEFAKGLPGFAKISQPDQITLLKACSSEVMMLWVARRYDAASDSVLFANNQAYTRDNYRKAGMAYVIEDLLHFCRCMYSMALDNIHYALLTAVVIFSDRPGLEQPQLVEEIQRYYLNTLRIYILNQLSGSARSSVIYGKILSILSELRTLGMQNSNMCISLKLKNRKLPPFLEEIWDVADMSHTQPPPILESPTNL
# Chain of CfEcR-DEF mutant R95W (P28702 299-449, further chain): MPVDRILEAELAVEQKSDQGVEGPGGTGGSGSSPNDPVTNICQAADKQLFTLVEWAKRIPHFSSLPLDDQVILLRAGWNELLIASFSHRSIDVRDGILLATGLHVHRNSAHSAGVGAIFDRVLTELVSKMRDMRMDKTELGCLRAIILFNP
# Chain of CfEcR-DEF mutant Y120M (O77255 entry or part of it Y403M): as the sequence (O77255 entry or part of it R378W) above, with W160R, Y185M counted along it
# Chain of CfEcR-DEF mutant Y120M (P28702 299-449, further chain): as the sequence (P28702 299-449, further chain) above
# Chain of CfEcR-DEF mutant M125W (O77255 entry or part of it M408W): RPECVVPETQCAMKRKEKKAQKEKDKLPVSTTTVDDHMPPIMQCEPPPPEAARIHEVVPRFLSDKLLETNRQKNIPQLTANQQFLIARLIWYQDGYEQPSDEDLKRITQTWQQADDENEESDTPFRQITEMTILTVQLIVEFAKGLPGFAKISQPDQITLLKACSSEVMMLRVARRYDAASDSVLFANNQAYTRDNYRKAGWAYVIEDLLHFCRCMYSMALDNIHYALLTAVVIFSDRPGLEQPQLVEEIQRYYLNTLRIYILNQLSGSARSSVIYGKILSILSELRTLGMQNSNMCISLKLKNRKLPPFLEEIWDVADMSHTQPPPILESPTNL
# Chain of CfEcR-DEF mutant M125W (P28702 299-449, further chain): as the sequence (P28702 299-449, further chain) above
# Chain of CfEcR-DEF mutant F48Y (O77255 entry or part of it F331Y): as the sequence (O77255 entry or part of it M408W) above, with F125Y, W202M counted along it
# Chain of CfEcR-DEF mutant F48Y (P28702 299-449, further chain): as the sequence (P28702 299-449, further chain) above
# Chain of CfEcR-DEF mutant T52P (P28702 298-449): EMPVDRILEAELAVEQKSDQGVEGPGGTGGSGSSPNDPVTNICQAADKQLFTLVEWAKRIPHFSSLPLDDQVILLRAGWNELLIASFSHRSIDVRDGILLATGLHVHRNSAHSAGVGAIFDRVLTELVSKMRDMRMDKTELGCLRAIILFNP
# Chain of CfEcR-DEF mutant T52P (O77255 entry or part of it T335P): as the sequence (O77255 entry or part of it M408W) above, with T129P, W202M counted along it
# Chain of CfEcR-DEF mutant L132M (O77255 entry or part of it L415M): as the sequence (O77255 entry or part of it M408W) above, with W202M, L209M counted along it
# Chain of CfEcR-DEF mutant L132M (P28702 298-449, further chain): as the sequence (P28702 298-449) above
# Chain of CfEcR-DEF mutant V96E (O77255 entry or part of it V379E): as the sequence (O77255 entry or part of it R378W) above, with W160R, V161E counted along it
# Chain of CfEcR-DEF mutant V96E (P28702 299-449, further chain): as the sequence (P28702 299-449, further chain) above
# Chain of CfEcR-DEF mutant T52V/A110P (O77255 entry or part of it T335V/A393P): as the sequence (O77255 entry or part of it R378W) above, with T117V, W160R, A175P counted along it
# Chain of CfEcR-DEF mutant T52V/A110P (P28702 299-449, stated change not applied, further chain): as the sequence (P28702 299-449, further chain) above
# Chain of CfEcR-DEF mutant F48N (O77255 entry or part of it F331N): as the sequence (O77255 entry or part of it M408W) above, with F125N, W202M counted along it
# Chain of CfEcR-DEF mutant F48N (P28702 299-449, further chain): as the sequence (P28702 299-449, further chain) above
# Chain of CfEcR-DEF mutant F109M (O77255 entry or part of it F392M): as the sequence (O77255 entry or part of it M408W) above, with F186M, W202M counted along it
# Chain of CfEcR-DEF mutant F109M (P28702 299-449, further chain): as the sequence (P28702 299-449, further chain) above
# Chain of CfEcR-DEF mutant A110N (O77255 entry or part of it A393N): as the sequence (O77255 entry or part of it M408W) above, with A187N, W202M counted along it
# Chain of CfEcR-DEF mutant A110N (P28702 299-449, stated change not applied, further chain): as the sequence (P28702 299-449, further chain) above
# Chain of CfEcR-DEF mutant V107I/Y127E/T52V (P28702 299-449): as the sequence (P28702 299-449, further chain) above
# Chain of CfEcR-DEF mutant V107I/Y127E/T52V (O77255 entry or part of it T335V/V390I/Y410E): as the sequence (O77255 entry or part of it R378W) above, with T117V, W160R, V172I, Y192E counted along it
# Chain of CfEcR-DEF mutant F109N (P28702 299-449): as the sequence (P28702 299-449, further chain) above
# Chain of CfEcR-DEF mutant F109N (O77255 entry or part of it F392N): as the sequence (O77255 entry or part of it M408W) above, with F186N, W202M counted along it
# Chain of CfEcR-DEF mutant F48W (P28702 299-449): as the sequence (P28702 299-449, further chain) above
# Chain of CfEcR-DEF mutant F48W (O77255 entry or part of it F331W): as the sequence (O77255 entry or part of it M408W) above, with F125W, W202M counted along it
# Chain of CfEcR-DEF mutant V128F (P28702 299-449): as the sequence (P28702 299-449, further chain) above
# Chain of CfEcR-DEF mutant V128F (O77255 entry or part of it V411F): as the sequence (O77255 entry or part of it R378W) above, with W160R, V193F counted along it
# Chain of CfEcR-DEF mutant W238E (P28702 299-449): as the sequence (P28702 299-449, further chain) above
# Chain of CfEcR-DEF mutant W238E (O77255 entry or part of it W521E): as the sequence (O77255 entry or part of it R378W) above, with W160R, W303E counted along it
# Chain of CfEcR-DEF mutant V107I/Y127E/G (P28702 299-449, stated change not applied): as the sequence (P28702 299-449, further chain) above
# Chain of CfEcR-DEF mutant V107I/Y127E/G (O77255 entry or part of it V390I/Y410E/INS541G): as the sequence (O77255 entry or part of it R378W) above, with W160R counted along it
smiles,measurement,setting,value
"CC(C)CC[C@@H](O)[C@](C)(O)[C@H]1CC[C@@]2(O)C3=CC(=O)[C@@H]4C[C@@H](O)[C@@H](O)C[C@]4(C)[C@H]3CC[C@]12C [PonA, ponasterone A]",EC50,"[1]; mutant V107I/Y127E/G, read-out: EC50",1.65 µM
same,Rel Max FI,"[1]; mutant V107I/Y127E/G, relative to max fold induction of GS-E ligand",0.67
same,Rel Max FI,CfEcR-DEF mutant F109N; mutant F109N,0
same,EC50,"CfEcR-DEF mutant F109N; mutant F109N, read-out: EC50",> 33 µM
same,Rel Max FI,CfEcR-DEF mutant R95W; mutant R95W,0
same,EC50,"CfEcR-DEF mutant R95W; mutant R95W, read-out: EC50",> 33 µM
same,Rel Max FI,CfEcR-DEF mutant Y120M; mutant Y120M,0.04
same,EC50,"CfEcR-DEF mutant Y120M; mutant Y120M, read-out: EC50",> 33 µM
same,Rel Max FI,CfEcR-DEF mutant W238E; mutant W238E,0
same,EC50,"CfEcR-DEF mutant W238E; mutant W238E, read-out: EC50",> 33 µM
same,EC50,"CfEcR-DEF mutant F109M; mutant F109M, read-out: EC50",~20 µM
same,Rel Max FI,"CfEcR-DEF mutant F109M; mutant F109M, relative to max fold induction of GS-E ligand",0.16
same,EC50,"CfEcR-DEF mutant A110N; mutant A110N, read-out: EC50",> 33 µM
same,Rel Max FI,"CfEcR-DEF mutant A110N; mutant A110N, relative to max fold induction of GS-E ligand",0
same,Rel Max FI,CfEcR-DEF mutant V96E; mutant V96E,0.02
same,EC50,"CfEcR-DEF mutant V96E; mutant V96E, read-out: EC50",> 33 µM
same,Rel Max FI,CfEcR-DEF mutant V128F; mutant V128F,0.03
same,EC50,"CfEcR-DEF mutant V128F; mutant V128F, read-out: EC50",> 33 µM
same,Rel Max FI,CfEcR-DEF mutant T52P; mutant T52P,0.03
same,EC50,"CfEcR-DEF mutant T52P; mutant T52P, read-out: EC50",> 33 µM
same,EC50,"CfEcR-DEF mutant F48W; mutant F48W, read-out: EC50",~10 µM
same,Rel Max FI,"CfEcR-DEF mutant F48W; mutant F48W, relative to max fold induction of GS-E ligand",0.65
same,EC50,"CfEcR-DEF mutant F48Y; mutant F48Y, read-out: EC50",~10 µM
same,Rel Max FI,"CfEcR-DEF mutant F48Y; mutant F48Y, relative to max fold induction of GS-E ligand",0.33
same,Rel Max FI,CfEcR-DEF mutant L132M,0.01
same,Rel Max FI,CfEcR-DEF mutant L132M; [4],0.57
same,Rel Max FI,CfEcR-DEF mutant F48N; mutant F48N,0.17
same,EC50,"CfEcR-DEF mutant F48N; mutant F48N, read-out: EC50",~20 µM
same,Rel Max FI,CfEcR-DEF mutant M125W; mutant M125W,0
same,EC50,"CfEcR-DEF mutant M125W; mutant M125W, read-out: EC50",> 33 µM
same,EC50,"[2]; mutant T52V/A110P, read-out: EC50",> 33 µM
same,Rel Max FI,"[2]; mutant T52V/A110P, relative to max fold induction of GS-E ligand",0
same,EC50,"[3]; mutant V107I/Y127E/T52V, read-out: EC50",~1 µM
same,Rel Max FI,"[3]; mutant V107I/Y127E/T52V, relative to max fold induction of GS-E ligand",0.67
"CCc1cccc(C(=O)NN(C(=O)c2cc(C)cc(C)c2)C(C)(C)C)c1C [RG-101691, 3,5-Dimethyl-benzoic acid N-tert-butyl-N′-(3-ethyl-2-methyl-benzoyl)-hydrazide]",EC50,[1],0.02 µM
same,Emax,[1]; [5],85%
same,EC50,CfEcR-DEF mutant F109N,3.95 µM
same,Emax,CfEcR-DEF mutant F109N; [5],85%
same,EC50,CfEcR-DEF mutant R95W,~10 µM
same,Emax,CfEcR-DEF mutant R95W; [5],37%
same,EC50,CfEcR-DEF mutant Y120M,~10 µM
same,Emax,CfEcR-DEF mutant Y120M; [5],30%
same,EC50,CfEcR-DEF mutant W238E,~8 µM
same,Emax,CfEcR-DEF mutant W238E; [5],71%
same,EC50,CfEcR-DEF mutant F109M,0.65 µM
same,Emax,CfEcR-DEF mutant F109M; [5],75%
same,EC50,CfEcR-DEF mutant A110N,0.88 µM
same,Emax,CfEcR-DEF mutant A110N; [5],99%
same,EC50,CfEcR-DEF mutant V96E,1.62 µM
same,Emax,CfEcR-DEF mutant V96E; [5],81%
same,EC50,"CfEcR-DEF mutant V128F; EC50, mutant V128F",~8.3 µM and 5.4 µM
same,Emax,CfEcR-DEF mutant V128F; [5],4%
same,EC50,CfEcR-DEF mutant T52P,> 33 µM
same,Emax,CfEcR-DEF mutant T52P; [5],2%
same,EC50,CfEcR-DEF mutant F48W,1.53 µM
same,Emax,CfEcR-DEF mutant F48W; [5],74%
same,EC50,CfEcR-DEF mutant F48Y,0.93 µM
same,Emax,CfEcR-DEF mutant F48Y; [5],69%
same,Emax,CfEcR-DEF mutant L132M,8%
same,Emax,CfEcR-DEF mutant L132M; [4],77%
same,EC50,CfEcR-DEF mutant F48N,1.73 µM
same,Emax,CfEcR-DEF mutant F48N; [5],88%
same,EC50,CfEcR-DEF mutant M125W,4.94 µM
same,Emax,CfEcR-DEF mutant M125W; [5],74%
same,EC50,[2],0.24 µM
same,Emax,[2]; [5],66%
same,EC50,[3],0.02 µM
same,Emax,[3]; [5],88%
